Reference: US20110300198A1, “HYDROCOLLOID - ESSENTIAL OIL PATCHES” (priority 2010, published 2011)
Where a name gives a salt, the structure may show the parent alone. Marks after values point to notes of the source that are not given here. One block for each molecule: values may come before it.

Legend:
[1] = In-vivo experiment with WAX column, constituents in blood; set-up: species or system rat; settings: 7.5% lavender oil patch on abdomen; split injection
Source text: Male Sprague-Dawley rats, weighing 300-350 g, were used in the studies (Harlan, Rehovot, Israel). The experimental protocols were approved by the Hebrew University of Jerusalem Committee on the Use and Care of Animals. Rats were maintained under specified-pathogen-free (SPF) conditions and were allowed to acclimate to the environment for at least 7 days before their use in the study. Rats were anesthetized and the fur on their stomach shaved prior to exposure. Gum karaya patches with and without lavender essential oil were applied to the rat's stomach skin. Each rat was housed in an individual cage in order to prevent oral contamination of the essential oil by one rat eating another's patch. Blood samples (0.5 ml) were taken at 0, 12, 24, 36, 48 and 60 h from a nick at the tip of tail to determine contents of essential-oil components. Rats were restrained and the tail was gently massaged to facilitate blood collection. Blood samples were collected in vials containing 0.1 ml heparin (100 kU, Sigma). A 10-μl volume of aqueous linalyl isovalerate stock solution was added as an internal standard to each blood sample and samples were stored at −80° C. […] Urine samples were similarly analyzed by gas chromatography (GC). […]
Patches that included lavender essential oil were adhered to the abdomen skin for 60 h. […] Between 12 and 36 h, a similar, non-significant change in levels was detected. […]

[2] = In-vivo experiment with HP-5 column, constituents in blood; set-up: species or system rat; settings: male, Sprague-Dawley, rat, in vivo
Source text: Male Sprague-Dawley rats, weighing 300-350 g, were used in the studies (Harlan, Rehovot, Israel). The experimental protocols were approved by the Hebrew University of Jerusalem Committee on the Use and Care of Animals. Rats were maintained under specified-pathogen-free (SPF) conditions and were allowed to acclimate to the environment for at least 7 days before their use in the study. Rats were anesthetized and the fur on their stomach shaved prior to exposure. Gum karaya patches with and without lavender essential oil were applied to the rat's stomach skin. Each rat was housed in an individual cage in order to prevent oral contamination of the essential oil by one rat eating another's patch. Blood samples (0.5 ml) were taken at 0, 12, 24, 36, 48 and 60 h from a nick at the tip of tail to determine contents of essential-oil components. Rats were restrained and the tail was gently massaged to facilitate blood collection. Blood samples were collected in vials containing 0.1 ml heparin (100 kU, Sigma). A 10-μl volume of aqueous linalyl isovalerate stock solution was added as an internal standard to each blood sample and samples were stored at −80° C. After 60 h, patches were removed and the application site was wiped with 70% alcohol. Animals were sacrificed and the patch of stomach skin to which the essential oil patch had been applied was removed and minced into small pieces. The skin pieces were placed in 1 ml of ethanol containing linalyl isovalerate as the internal standard and sonicated for 30 min after heating to 50° C. A 10-μl aliquot was then injected straight into the gas chromatograph. A urine sample (0.5 ml) was obtained from the bladder immediately after sacrifice. Urine samples were similarly analyzed by gas chromatography (GC).
Blood (0.5 ml) or phosphate buffer (0.5 ml) was collected at t=0, 12, 24, 36, 48 and 60 h. Blood samples were placed in Eppendorf heparin-coated glass vials (Agilent) by heparin-washed syringe, which were sealed with septa and screw caps. Each vial contained 100 μl of heparin and blood samples were frozen at −80° C. for storage. Prior to analysis, the blood or phosphate buffer was thawed to room temperature, a 10-μl volume of internal standards (6.5 mg linalyl isovalerate and 6.5 mg geranyl formate in 25 ml acetonitrile) was added to the vial and then the mixture was vortexed. The vials were tightly capped using a clear cap with septum. The septa were pre-punctured immediately before analysis using a needle to facilitate the insertion of the fiber sheath. The fiber sheath was inserted through the septum, and positioned to expose the fiber in the center of the headspace. The vial was placed on a heating block to maintain temperature at a constant 50° C. and the solid-phase microextraction (SPME) assembly was clamped securely. Absorption time was 30 min. No stirring was required. After absorption, the SPME fiber sheath was immediately transferred to the GC injector for desorption for 5 min and GC analysis.
GC was performed on an Agilent 7890A gas chromatograph equipped with a split/splitless capillary injector, flame ionization detection (FID) system and GC Chem Station (Version B.03.01; Agilent Technologies 2007). Chromatography was carried out on a WAX or HP-5 column (30 m×0.32 mm×0.25 μm). The GC operating conditions were: splitless or split 1:40 injector 240° C., oven 50° C. for 1 min and then 10° C. min^−1 to 160° C., then 25° C. min^−1 to 240° C. and held for 6 min; the carrier gas was hydrogen.
In this experiment, patches containing lavender essential oil were adhered to the abdomen area. Patches without essential oil served as blanks. […] Detection under splitless conditions facilitated the detection of linalyl acetate, linalool, camphor, borneol and α-terpineol, the latter two being additional constituents detected only under these conditions. High concentrations of linalool, borneol and camphor were detected, in comparison to low levels of terpeneol and linalyl acetate. […]

[3] = cited from earlier work
[4] = Preliminary in-vivo experiment, constituents in blood (GC, WAX column); set-up: species or system rat; settings: rat, in vivo
[5] = cited from earlier work; remark: listed apart in the source
[6] = Ex-vivo transfer of essential-oil constituents through the skin in Franz diffusion cells; type: in vitro ADME, rat; settings: for Accumulated concentration transferred through the skin: from gum karaya-Lavandula angustifolia essential oil patch (7.5% oil); for Accumulated concentration diffused through the skin: mixture of Lavandula angustifolia essential oil and almond oil rubbed on the skin
Method: Ex-vivo release studies were performed in Franz diffusion cells (FCs) (PermeGear, Hellertown, Pa.). Stomach skin pieces (1.2 cm×1.2 cm) from a male rat, which were stored in the freezer for 1 month, were thawed at room temperature and placed in glass FCs. The surface area for absorption was 0.64 cm2. The FCs were thermoregulated with a water jacket at 32° C. The 4.5-ml volume of the receptor chamber of the FC was filled with a receptor solution containing 5% (w/v) bovine serum albumin (BSA) diluted with phosphate buffer pH 7.4. […] The receptor solution was continuously agitated with a magnetic stirrer. During the experiments, the donor compartments and sampling arms were sealed to prevent evaporation. The fluid in the receptor chamber was removed after different periods of time (0, 6, 12, 24, 36 and 48 h) and replaced with fresh phosphate buffer solution. Samples were stored at 4° C. after sampling, prior to analysis. Samples were analyzed in a gas chromatograph (Agilent Technologies, Santa Clara, Calif.) with a WAX 30 m×0.32 mm×0.25 μm (Agilent) column.
Transdermal delivery of essential-oil components through rat skin from both lavender essential oil, which includes a high proportion of terpenoids, and Valencia orange essential oil, which includes a considerable amount of terpene, entrapped within gum-karaya-based patches, was examined. In addition to the regular patch adhered to the skin to be tested for essential-oil delivery by the traditional FCs and by in vivo tests (detailed below), another experiment was performed in which the skin was smeared with an almond-essential oil mixture, in order to partially imitate the situation in which the skin is massaged in an aromatherapy session. All experiments were conducted at ambient temperature and the inclusion of the essential oil as part of the almond oil-essential oil mixture (for the massage-like simulation) was equal in quantity and proportion to the inclusion of essential oil within the patch.

[7] = Decomposition of internal standards in blood and skin extract (GC, GC-MS); type: in vitro ADME, rat; settings: for Stability in the blood: GC-MS
Method: Linalyl isovalerate and geranyl formate were tested for their suitability as internal standards for linalool and linalyl acetate using headspace (HS)-SPME. Linalyl isovalerate was chosen as the most appropriate internal standard on the basis of area formed under the peak. A stock solution of linalyl isovalerate in acetonitrile (25 mg L^−1) was further diluted with acetonitrile to produce an aqueous solution of linalyl isovalerate (5 mg L^−1). A 10-μl volume of the aqueous linalyl isovalerate stock solution was added as the internal standard to each sample. Standard was prepared from 0.5 ml of blank blood, 10 μl internal standard (0.0026 mg linalyl isovalerate in 25 ml acetonitrile) and an appropriate dilution of lavender oil in 10 μl acetonitrile. Lavender oil was first dissolved in acetonitrile (625 mg L^−1) and further diluted with acetonitrile to make intermediate standards (0.5, 1, 5, 25 and 125 mg L^−1). The calibration curves were plotted using the peak area ratio of linalool (the main constituent of lavender oil) and linalyl isovalerate vs. linalool concentration. A standard stock solution of lavender oil (625 mg L^−1) was prepared in acetonitrile. Calibration standards for determination of linear dynamic range were prepared by serial dilutions with acetonitrile. For quantitative analysis of lavender oil in the blood, working standard solutions containing 0.5, 1, 5, 25 and 125 mg L^−1 of lavender were prepared by dilution of the 625 mg L^−1 solution with acetonitrile. […] The compounds absorbed on the fiber were detached and analyzed by exposing the fiber for 5 min in the injection port.
Two standards were checked for their suitability to this study: linalyl isovalerate and geranyl formate. […] Thus, although it is not possible to quantify linalool since the lavender essential oil may not be its only source, it is possible to quantify other components of lavender, and linalyl isovalerate was chosen to serve as the standard in the blood.

SMILES: CC12CCC(CC1=O)C2(C)C (stereo not drawn) [Camphor]
Level in blood after 60 h [1]: no traces
concentration at 60 h [2]: 35 ng/mL
Log P [3]: about 3
Detection in blood [4]: No levels of camphor were detected
Solubility in water [5]: relatively high
% diffused (of initial amount of entrapped essential oil) ([6]; Almond-lavandula mixture, 0 h): 0.00^a %
% diffused (of initial amount of entrapped essential oil) ([6]; Almond-lavandula mixture, 6 h): 0.01 ± 0.01^a %
% diffused (of initial amount of entrapped essential oil) ([6]; Almond-lavandula mixture, 12 h): 1.15 ± 1.26^a %
% diffused (of initial amount of entrapped essential oil) ([6]; Almond-lavandula mixture, 24 h): 2.28 ± 0.08^a %
% diffused (of initial amount of entrapped essential oil) ([6]; Lavandula patch, 0 h): 0.00^a %
% diffused (of initial amount of entrapped essential oil) ([6]; Lavandula patch, 6 h): 0.70 ± 0.04^b %
% diffused (of initial amount of entrapped essential oil) ([6]; Lavandula patch, 12 h): 1.02 ± 0.01^c %
% diffused (of initial amount of entrapped essential oil) ([6]; Lavandula patch, 24 h): 2.10 ± 0.32^d %
Accumulated concentration transferred through the skin ([6]; 6 h): 0.51 ± 0.33^a mg/L
Accumulated concentration transferred through the skin ([6]; 12 h): 0.74 ± 0.02^b mg/L
Accumulated concentration transferred through the skin ([6]; 24 h): 1.53 ± 0.13^c mg/L
Accumulated concentration diffused through the skin ([6]; 6 h): 0.01 ± 0.03^a mg L^−1
Accumulated concentration diffused through the skin ([6]; 12 h): 0.89 ± 0.98^a mg L^−1
Accumulated concentration diffused through the skin ([6]; 24 h): 1.78 ± 0.06^a mg L^−1
Calculated steady-state flux ([6]; rubbing in a mixture with almond oil): 5.7×10^−4 mg.cm^−2 h^−1
Calculated steady-state flux ([6]; transferred from a lavender essential oil patch): 4.3×10^−4 mg.cm^2 h^−1

SMILES: CC1(C)C2CCC1(C)C(O)C2 (stereo not drawn) [borneol, Borneol]
concentration at 60 h [2]: 31 ng/mL

SMILES: C=C(C)[C@H]1CC=C(C)CC1 [d-Limonene]
Log P [3]: about 4

SMILES: CC1=CCC(C(C)(C)O)CC1 (stereo not drawn) [α-Terpeneol, α-Terpineol]
Level in blood from 12 h onwards [2]: 5 to 9 ng/mL

Now from value to molecule:

Stability in the blood [7]: decomposes in the blood
SMILES: CC(C)=CCC/C(C)=C/COC=O [geranyl formate]

Stability in the blood [7]: decomposes in the blood
Stability in the skin extract ([7]; skin with essential oil-containing patch): did not decompose
SMILES: C=CC(C)(CCC=C(C)C)OC(=O)CC(C)C (stereo not drawn) [linalyl isovalerate]
